Type in all cases: biochemical
The target of assay [1] is recombinant human cathepsin L (hCatL) (Homo sapiens (Human), UniProt P07711). Nature of the assay: CatL functional enzyme assay (fluorogenic substrate Z-VVR-AMC). The conditions noted are these: pH 5.5. The procedure:
(§1) Reference and test compounds were assayed for inhibitory potency (IC50) against human cathepsins using the following assay setups:
(§2) Recombinant human cathepsins (CatS, CatK, CatL, CatB) were purchased from a Enzo Life Sciences. All assays were carried out in 96-well format using a buffer of 50 mM KH2PO4, 50 mM NaCl, 2 mM EDTA, 0.5 mM DTT and 1% Triton-X-100, pH 6.5 for Cathepsin S and a buffer of 50 mM NaOAc, 10 mM EDTA, 1 mM DTT and 0.01% Triton-X-100, pH 5.5 for CatK/L/B. For CatS, the enzyme (0.0007 mU/well) was incubated with fluorogeninc substrate (Z-VVR-AMC, 5 μM) at RT for 10 min. For CatK the enzyme (0.00175 mU/well) was incubated with fluorogeninc substrate (Z-FR-AMC, 40 μM) at RT for 10 min. For CatL, the enzyme (0.000874 mU/well) was incubated with fluorogeninc substrate (Z-VVR-AMC, 40 μM) at RT for 10 min. For CatB the enzyme was incubated with fluorogenic substrate (Z-VVR-AMC, 200 μM) at RT for 10 min. Flourogenic substrate turnover was detected using a microplate reader (Synergyl™ H4, BioTek). Ki values were calculated using the Cheng Prusoff equation (Cheng & Prosoff 1973).

The target in assay [2] is recombinant human cathepsin S (hCatS) (Homo sapiens (Human), UniProt P25774). The assay is described as follows: CatS functional enzyme assay (fluorogenic substrate Z-VVR-AMC). The following applies: Ki calculated by Cheng Prusoff equation; pH 6.5. On the procedure:
as §1, §2

Assay [3] addresses recombinant human cathepsin K (hCatK) (Homo sapiens (Human), UniProt P43235). The assay is described as follows: CatK functional enzyme assay (fluorogenic substrate Z-FR-AMC). The conditions noted are these: for Ki: Ki calculated by Cheng Prusoff equation, pH 5.5; for Selectivity Ki(hCatS)/Ki(hCatK): ratio of Ki hCatS to Ki hCatK. The procedure: as §1, §2

The source of these data is patent US9802947B2, “3-oxo-tetrahydro-furo[3,2-b]pyrrol-4(5H)-yl) derivatives II” (GRÜNENTHAL GMBH, priority 2014, dated 2017).

For orientation: inhibition means the share of the control response that was lost under treatment. As a reminder, the Ki is the dissociation constant of the complex between target and ligand, obtained from inhibition or displacement.

Chain of recombinant human cathepsin K (hCatK) (P43235 115-329): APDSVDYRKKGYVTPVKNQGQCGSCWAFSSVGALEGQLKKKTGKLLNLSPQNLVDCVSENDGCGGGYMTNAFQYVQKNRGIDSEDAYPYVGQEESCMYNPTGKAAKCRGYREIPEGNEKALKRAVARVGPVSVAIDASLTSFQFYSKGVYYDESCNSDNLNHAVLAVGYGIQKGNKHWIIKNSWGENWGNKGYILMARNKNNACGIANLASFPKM
Chain of recombinant human cathepsin L (hCatL) (P07711 114-333): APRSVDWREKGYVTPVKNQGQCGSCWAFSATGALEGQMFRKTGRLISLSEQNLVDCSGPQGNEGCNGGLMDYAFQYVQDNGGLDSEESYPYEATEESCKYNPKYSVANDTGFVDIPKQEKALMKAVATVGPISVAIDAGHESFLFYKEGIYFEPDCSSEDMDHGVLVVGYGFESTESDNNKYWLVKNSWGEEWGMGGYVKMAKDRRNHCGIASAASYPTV
Chain of recombinant human cathepsin S (hCatS) (P25774 115-331): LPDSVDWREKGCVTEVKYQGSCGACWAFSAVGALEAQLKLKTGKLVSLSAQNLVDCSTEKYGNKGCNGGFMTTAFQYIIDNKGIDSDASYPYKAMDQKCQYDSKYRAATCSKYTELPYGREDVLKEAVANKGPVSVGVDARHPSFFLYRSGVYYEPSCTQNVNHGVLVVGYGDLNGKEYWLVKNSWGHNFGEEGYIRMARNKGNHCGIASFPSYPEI

Regarding `O=C(N[C@H](C(=O)N1C[C@H](Cl)[C@H]2OCC(=O)[C@H]21)C1CCCC1)c1ccc(-c2ccnnc2)s1` [Example 4, N—((S)-2-((3aS,6S,6aS)-6-chloro-3-oxotetrahydro-2H-furo[3,2-b]pyrrol-4(5H)-yl)-1-cyclopentyl-2-oxoethyl)-5-(pyridazin-4-yl)thiophene-2-carboxamide], in assay [1], the inhibition at 31.6 µM is 73%. Besides, the Ki in assay [2] is 0.0398 µM. Also, in assay [3], the Ki is 0.0018 µM and the “Selectivity Ki(hCatS)/Ki(hCatK)” value came to 22.
The matching figures for `O=C(N[C@H](C(=O)N1C[C@H](Cl)[C@H]2OCC(=O)[C@H]21)C1CCCC1)c1ccc(-c2cncc(F)c2)s1` [Example 6, N—((S)-2-((3aS,6S,6aS)-6-chloro-3-oxotetrahydro-2H-furo[3,2-b]pyrrol-4(5H)-yl)-1-cyclopentyl-2-oxoethyl)-5-(5-fluoropyridin-3-yl)thiophene-2-carboxamide]: 42%, 0.174 µM, 0.0031 µM and 55.
With `O=C(N[C@H](C(=O)N1C[C@H](Cl)[C@H]2OCC(=O)[C@H]21)C1CCCC1)c1ccc(-c2cnccn2)s1` [Example 5, N—((S)-2-((3aS,6S,6aS)-6-chloro-3-oxotetrahydro-2H-furo[3,2-b]pyrrol-4(5H)-yl)-1-cyclopentyl-2-oxoethyl)-5-(pyrazin-2-yl)thiophene-2-carboxamide], in assay [1], the inhibition at 31.6 µM came out at 81%. In addition, the Ki in assay [2] was 0.355 µM. In assay [3], the Ki is 0.0021 µM and the “Selectivity Ki(hCatS)/Ki(hCatK)” value came out at 169.
For `O=C(N[C@H](C(=O)N1C[C@H](Cl)[C@H]2OCC(=O)[C@H]21)C1CCCC1)c1ccc(-c2cccnc2)s1` [Example 2, N—((S)-2-((3aS,6S,6aS)-6-chloro-3-oxotetrahydro-2H-furo[3,2-b]pyrrol-4(5H)-yl)-1-cyclopentyl-2-oxoethyl)-5-(pyridin-3-yl)thiophene-2-carboxamide] the same measures were 45%, 0.308 µM, 0.0007 µM and 453.
As to `O=C(N[C@H](C(=O)N1C[C@H](Cl)[C@H]2OCC(=O)[C@H]21)C1CCCC1)c1cccc(-c2cccnc2)c1` [Comparative Example C1, N—((S)-2-((3aS,6S,6aS)-6-chloro-3-oxotetrahydro-2H-furo[3,2-b]pyrrol-4(5H)-yl)-1-cyclopentyl-2-oxoethyl)-3-(pyridin-3-yl)benzamide, reference compound], the Ki in assay [2] is 0.0824 µM. Further, in assay [3], the Ki is 0.0148 µM and the “Selectivity Ki(hCatS)/Ki(hCatK)” value came out at 6.
Regarding `O=C(N[C@H](C(=O)N1C[C@H](Cl)[C@H]2OCC(=O)[C@H]21)C1CCCC1)c1ccc(-c2ccncc2)s1` [Example 8, N—((S)-2-((3aS,6S,6aS)-6-chloro-3-oxotetrahydro-2H-furo[3,2-b]pyrrol-4(5H)-yl)-1-cyclopentyl-2-oxoethyl)-5-(pyridin-4-yl)thiophene-2-carboxamide], the inhibition at 31.6 µM in assay [1] was 50%. For the same compound, the Ki in assay [2] is 0.16 µM. In addition, in assay [3], the Ki was 0.0008 µM and the “Selectivity Ki(hCatS)/Ki(hCatK)” value is given as 210.
For `O=C(N[C@H](C(=O)N1C[C@H](Cl)[C@H]2OCC(=O)[C@H]21)C1CCCC1)c1ncc(-c2cccnn2)s1` [Example 7, N—((S)-2-((3aS,6S,6aS)-6-chloro-3-oxotetrahydro-2H-furo[3,2-b]pyrrol-4(5H)-yl)-1-cyclopentyl-2-oxoethyl)-5-(pyridazin-3-yl)thiazole-2-carboxamide] the same measures were 62%, 0.263 µM, 0.0053 µM and 50.
For `O=C(N[C@H](C(=O)N1C[C@H](Cl)[C@H]2OCC(=O)[C@H]21)C1CCCC1)c1ccc(-c2cccnn2)s1` [Example 1, N—((S)-2-((3aS,6S,6aS)-6-chloro-3-oxotetrahydro-2H-furo[3,2-b]pyrrol-4(5H)-yl)-1-cyclopentyl-2-oxoethyl)-5-(pyridazin-3-yl)thiophene-2-carboxamide] the same measures were 72%, 0.151 µM, 0.0015 µM and 99.
The matching figures for `O=C(N[C@H](C(=O)N1C[C@H](Cl)[C@H]2OCC(=O)[C@H]21)C1CCCC1)c1ccc(-c2cncnc2)s1` [Example 3, N—((S)-2-((3aS,6S,6aS)-6-chloro-3-oxotetrahydro-2H-furo[3,2-b]pyrrol-4(5H)-yl)-1-cyclopentyl-2-oxoethyl)-5-(pyrimidin-5-yl)thiophene-2-carboxamide]: 73%, 0.11 µM, 0.0021 µM and 53.
